Assay: mn = molality of the nth substance listed, in mol/kg
Conditions: 101 kPa, Liquid; for apparent molar heat capacity: Flow calorimetry

Nc1ncnc2c1ncn2[C@@H]1O[C@H](CO)[C@@H](O)[C@H]1O [β-adenosine] + O
Conditions | apparent molar heat capacity [J/K/mol] | mass density [kg/m3]
288.15 K, m1 = 0.01329 | – | 1000.4
288.15 K, m1 = 0.01395 | – | 1000.47
288.15 K, m1 = 0.01492 | – | 1000.56
288.15 K, m1 = 0.01614 | – | 1000.68
288.15 K, m1 = 0.01712 | – | 1000.77
288.15 K, m1 = 0.01799 | – | 1000.86
288.15 K, m1 = 0.01882 | – | 1000.94
288.15 K, m1 = 0.01892 | – | 1000.95
288.15 K, m1 = 0.01942 | – | 1001
298.15 K, m1 = 0.01501 | – | 998.486
298.15 K, m1 = 0.01599 | 483.2 | 998.58
298.15 K, m1 = 0.01704 | 488 | 998.686
298.15 K, m1 = 0.01799 | 487.4 | 998.767
298.15 K, m1 = 0.01899 | 491.7 | 998.864
298.15 K, m1 = 0.01941 | 486.7 | 998.902
298.15 K, m1 = 0.01999 | 489.8 | 998.965
298.15 K, m1 = 0.02098 | 488.4 | 999.055
298.15 K, m1 = 0.02171 | 489.9 | 999.129
298.15 K, m1 = 0.02196 | 487.5 | 999.151
303.15 K, m1 = 0.01329 | – | 996.913
303.15 K, m1 = 0.01395 | – | 996.975
303.15 K, m1 = 0.01501 | – | 997.076
303.15 K, m1 = 0.01546 | – | 997.117
303.15 K, m1 = 0.01614 | – | 997.185
303.15 K, m1 = 0.01712 | – | 997.271
303.15 K, m1 = 0.01799 | – | 997.354
303.15 K, m1 = 0.01892 | – | 997.445
303.15 K, m1 = 0.01903 | – | 997.455
303.15 K, m1 = 0.01942 | – | 997.495
313.15 K, m1 = 0.01297 | – | 993.43
313.15 K, m1 = 0.01346 | – | 993.47
313.15 K, m1 = 0.01395 | – | 993.522
313.15 K, m1 = 0.01501 | – | 993.616
313.15 K, m1 = 0.01598 | – | 993.707
313.15 K, m1 = 0.017 | – | 993.802
313.15 K, m1 = 0.01799 | – | 993.896
313.15 K, m1 = 0.01882 | – | 993.976
313.15 K, m1 = 0.01997 | – | 994.077
